Laboratory results: patent US20090311292A1, “PROCESS FOR SYNTHESIS AND INCORPORATION OF NITRIC OXIDE DONORS IN MACROMOLECULAR COMPOSITIONS” (CRISTALIA PRODUTOS QUIMICOS FARMACEUTICOS LTDA., priority 2006, published 2009)
One block for each compound: values may come before it.

Assays:
[1] = Stability of solid glutathione at 30° C. and 40° C. (UV-visible spectrophotometry after conversion to GSNO); assay type: physicochemical; conditions: for Content (%) 30 days / Content (%) 70 days / Content (%) 105 days / Content (%) 165 days / Content (%) Initial: solid
Method: Samples of solid glutathione (GSH) were stored in amber glass vials and maintained at temperatures of 30° C. and 40° C. for evaluation of its stability. GSH content in the samples was determined by UV-visible spectrophotometry from the reaction between GSH and NaNO2 in acid medium (aqueous HCl solution, 2.0 mol L^−1) forming GSNO with absorption bands at 336 nm and 545 nm. GSNO formation (0.05 mol L^−1) was quantified by the intensity of the GSNO absorption band at 545 nm.

[2] = Stability of solid GSNO stored at room temperature (absorbance at 336 nm); assay type: physicochemical; conditions: amber glass vials, room temperature (25° C.)
Method: Samples of solid GSNO were stored in amber glass vials and maintained at room temperature (25° C.) for evaluation of its stability. GSNO content in the samples at day 0, after 48 hours (day 2) and after 5 days was quantified from the absorbance readings of the aqueous solutions 500 μmol L^−1 at 336 nm. […] According to the results, after 48-hours of storage at room temperature, decomposition of approximately 52% of the initial GSNO content occurs.

[3] = Stability of GSNO incorporated in PEO-PPO-PEO matrix (Pluronic F-127) under refrigeration; assay type: physicochemical; conditions: for Content (%) 30 days / Content (%) 45 days / Content (%) 110 days / Content (%) Initial: 5-8° C.
[4] = test system: excisional wound on the back of Wistar rats; assay: Cutaneous wound healing in an animal model (excisional wound); assay type: in vivo
Text: 6.1. Acceleration of cutaneous wound healing in an animal model. […] The formulation of freshly prepared GSNO (100 μmol L^−1) was topically applied to the wounds of the animals. Wistar rats (n=10) were housed in individual cages with free access to water. In the first day (Day 0-d0), an excisional wound (2×2 cm) was made on the back of the animals, under general anesthesia. The wound was covered with either pure hydrogel (control animals) or GSNO-containing hydrogel (treated group). Thereafter, the wounds were closed with a dressing. Daily, up to the fourth day after injury, the dressings were removed, and the wounds were gently cleaned with cold saline. The hydrogel (either containing GSNO or not) was applied and the dressing was replaced. From the fifth day after injury on, the wounds were no longer closed with a dressing.
Wound retraction was measured and reepithelization was evaluated histologically. Wound contours were traced in a transparent paper sheet at the day of injury and after 3, 5, 7, 14 and 21 days. The tracing area was determined using image-analysis software (Image-Pro) and the results were expressed as percentages of the initial area. Blood pressure was measured at the beginning and end of the experiments. After euthanasia, a fragment containing the wound and the adjacent healthy skin was removed. The fragments were fixed in formalin solution, processed and embedded in paraffin. The paraffin-embedded specimens were serially sectioned and 5-μm-thick cuts were obtained and stained using the following techniques: hematoxylin-eosin (for overall observation of the tissue fragment), picro-Mallory (for observation of the connective tissue) and picrosirius red (for observation of the collagen fibers). The blood pressure of the control and treated animals was equivalent at the beginning and end of the experiments.

[5] = incorporated in PEO-PPO-PEO gel at 37° C.; cited from earlier work
[6] = 25° C. in the dark, 0.1 to 61.0 mmol L^−1, follow-up 3.5 hours; cited from earlier work
[7] = 50 μmolL^−1 in hydrogel formulation
[8] = 100 μmolL^−1 in hydrogel formulation
[9] = 200 μmolL^−1 in hydrogel formulation
[10] = twenty-one days after injury, superficial and deep areas

time remained stable ([1]; solid form, follow up by UV-visible spectrophotometry): at least 165 days
Content (%) 30 days ([1]; 30° C.): 100 ± 6%
Content (%) 70 days ([1]; 30° C.): 102 ± 6%
Content (%) 105 days ([1]; 30° C.): 103 ± 6%
Content (%) 165 days ([1]; 30° C.): 100 ± 6%
Content (%) Initial ([1]; 30° C.): 100 ± 6%
Content (%) 30 days ([1]; 40° C.): 100 ± 6%
Content (%) 70 days ([1]; 40° C.): 100 ± 6%
Content (%) 105 days ([1]; 40° C.): 99 ± 6%
Content (%) 165 days ([1]; 40° C.): 101 ± 6%
Content (%) Initial ([1]; 40° C.): 100 ± 6%
SMILES: N[C@@H](CCC(=O)N[C@@H](CS)C(=O)NCC(=O)O)C(=O)O [GSH, glutathione]

Content (%) After 2 days [2]: 48 ± 6%
Content (%) After 5 days [2]: 36 ± 6%
Content (%) Initial (day 0) [2]: 100 ± 6%
Content (%) 30 days [3, 7]: 96 ± 6%
Content (%) 45 days [3, 7]: 89 ± 6%
Content (%) 110 days [3, 7]: 85 ± 6%
Content (%) Initial [3, 7]: 100 ± 6%
Content (%) 30 days [3, 8]: 103 ± 6%
Content (%) 45 days [3, 8]: 100 ± 6%
Content (%) 110 days [3, 8]: 80 ± 6%
Content (%) Initial [3, 8]: 100 ± 6%
Content (%) 30 days [3, 9]: 90 ± 6%
Content (%) 45 days [3, 9]: 90 ± 6%
Content (%) 110 days [3, 9]: 85 ± 6%
Content (%) Initial [3, 9]: 100 ± 6%
decrease in relation to the initial GSNO content ([3]; in PEO-PPO-PEO matrix, 50, 100 and 200 μmol L^−1, 110 days at 5-8° C.): about 20%
SMILES: N[C@@H](CCC(=O)N[C@@H](CSN=O)C(=O)NCC(=O)O)C(=O)O [GSNO, S-nitrosoglutathione]
area of wound reepithelization larger compared to the control group ([4]; 7 days after injury): > 77%
wound retraction versus control group ([4]; after 3, 5 and 7 days of injury (p=0.01; p=0.05; p=0.007), GSNO-containing hydrogel 100 μmol L^−1): greater
new epidermis formation compared to the control animals ([4]; after 14 and 21 days of injury): more accentuated
wound contraction in relation to the controls ([4]; after 14 and 21 days of injury): greater
blood pressure of control and treated animals ([4]; beginning and end of the experiments, GSNO 100 μmol L^−1 in Pluronic F-127 hydrogel, topical): equivalent
wound area in control animals larger than in GSNO-treated animals ([4]; fourteen days after injury): 22%
number of microvessels in relation to the control group ([4]; twenty-one days after injury): tendency of increase
total number of mast cells in deep areas of the granulation tissue compared to the control group ([4]; twenty-one days after injury): +384%
wound area in control animals larger than in GSNO-treated animals ([4]; twenty-one days after injury): 20%
inflammatory cells in granulation tissue of control group in comparison to GSNO-treated group [4, 10]: larger number
number of fibroblasts in granulation tissue compared to the control group [4, 10]: increase
initial rate of thermal decomposition [5]: 2.3 μmolL^−1 min^−1
thermal decomposition of aqueous solution [6]: undergo spontaneous thermal decomposition

SMILES: N[C@@H](CSN=O)C(=O)O [S-nitrosocysteine, reference compound]
thermal decomposition of aqueous solution [6]: undergo spontaneous thermal decomposition

SMILES: CC(=O)N[C@@H](CSN=O)C(=O)O [SNAC, S-nitroso-N-acetylcysteine]
initial rate of thermal decomposition [5]: 7.2 μmolL^−1 min^−1
thermal decomposition of aqueous solution [6]: undergo spontaneous thermal decomposition
